Results published in PubChem BioAssay (NCI).
Several values for one entry are separate records, joined by “and”; a condition that tells them apart may be missing. Equal entries are not always repeated.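 48-hour exposure; five concentrations; linearly interpolated endpoints. GI50: concentration for 50% inhibition of growth. At the TGI there is no net growth.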

Key:
Experiment in all cases: NCI tumour cell line growth inhibition, 48 h
[1] = system: TK-10 renal
[2] = system: SF-539 CNS
[3] = system: SNB-78 CNS
[4] = system: HS 578T breast
[5] = system: DLD-1 colon
[6] = system: A498 renal
[7] = system: BT-549 breast
[8] = system: SR leukemia
[9] = system: MOLT-4 leukemia
[10] = system: UACC-62 melanoma

SMILES | TGI [1] | TGI [2] | TGI [3] | TGI [4] | TGI [5] | TGI [6] | TGI [7] | TGI [8] | TGI [9] | TGI [10] | GI50 [1] | GI50 [2] | GI50 [3] | GI50 [5] | GI50 [6] | GI50 [9] | GI50 [10]
O=[N+]([O-])c1ccc(C2=Nn3c(nnc3-c3ccc(Cl)cc3)SC2)o1 | 29.7 µM | 20.5 µM | 38.6 µM | 18.4 µM | 4.32 µM | 31.3 µM | 23.9 µM | 1.16 µM | 8.59 µM | 25.9 µM | – | – | – | – | – | – | –
O=C1NC2C(=CC(O)C(O)C2O)c2cc3c(cc21)OCO3 (stereo not given) | 4.11 µM | 1.41 µM and 1.85 µM | 4.94 µM and 11.2 µM | 0.55 µM | 2.11 µM | 3.64 µM and 2.69 µM | – | 0.566 µM | 0.511 µM and 1.24 µM | 2.56 µM and 1.65 µM | 0.917 µM | 0.237 µM | 0.456 µM and 0.426 µM | 0.325 µM and 0.217 µM | 0.904 µM and 0.568 µM | 0.305 µM and 0.454 µM | 0.266 µM
CC1(Br)CC2OC3(Br)C=CC(C)(O)C2(CC1=O)C3(C)C (stereo not given) | > 100 µM | > 100 µM | > 100 µM | – | > 100 µM | > 100 µM | – | > 100 µM | > 100 µM | > 100 µM | – | – | – | – | – | – | –
Cc1cc(C)n(-c2ccnc3cc(Cl)ccc23)n1 | > 100 µM | > 100 µM | > 100 µM | – | > 100 µM | > 100 µM | – | > 100 µM | > 100 µM | > 100 µM | – | – | – | – | – | – | –
CC1=CCCC2C1(C)CCC(C)C2(C)Cc1cc(O)ccc1O (stereo not given) | 25.5 µM | 26.3 µM and 23.6 µM | 11 µM | 17.9 µM | 22.2 µM | 32.9 µM and 30.3 µM | 16.2 µM | 24.7 µM | 21 µM and 8.36 µM | 28.7 µM and 24.5 µM | – | 11.1 µM | – | – | – | – | 13 µM
O=C1[C@@H]2C(c3ccccc3[N+](=O)[O-])=[N+](c3ccccc3)O[C@@H]2C(=O)N1c1ccc(Cc2ccc(N3C(=O)[C@H]4C(c5ccccc5[N+](=O)[O-])=[N+](c5ccccc5)O[C@H]4C3=O)cc2)cc1 | > 100 µM | > 100 µM | > 100 µM | – | > 100 µM | > 100 µM | – | > 100 µM | > 100 µM | > 100 µM | – | – | – | – | – | – | –
CCOC(=O)NC/C=C/COC1CCCCO1 (stereo not given) | > 100 µM | > 100 µM | > 100 µM | – | > 100 µM | > 100 µM | – | > 100 µM | > 100 µM | > 100 µM | – | – | – | – | – | – | –
O=C(O)C(C(=O)O)P(=S)(S)c1ccccc1 (stereo not given) | > 100 µM | > 100 µM | > 100 µM | > 100 µM | > 100 µM | > 100 µM | > 100 µM | > 100 µM | > 100 µM | > 100 µM | – | – | – | – | – | – | –
